The target in experiment [1] is T1, Polyunsaturated fatty acid 5-lipoxygenase (Homo sapiens, UniProt P09917).
T1 sequence (P09917 whole entry): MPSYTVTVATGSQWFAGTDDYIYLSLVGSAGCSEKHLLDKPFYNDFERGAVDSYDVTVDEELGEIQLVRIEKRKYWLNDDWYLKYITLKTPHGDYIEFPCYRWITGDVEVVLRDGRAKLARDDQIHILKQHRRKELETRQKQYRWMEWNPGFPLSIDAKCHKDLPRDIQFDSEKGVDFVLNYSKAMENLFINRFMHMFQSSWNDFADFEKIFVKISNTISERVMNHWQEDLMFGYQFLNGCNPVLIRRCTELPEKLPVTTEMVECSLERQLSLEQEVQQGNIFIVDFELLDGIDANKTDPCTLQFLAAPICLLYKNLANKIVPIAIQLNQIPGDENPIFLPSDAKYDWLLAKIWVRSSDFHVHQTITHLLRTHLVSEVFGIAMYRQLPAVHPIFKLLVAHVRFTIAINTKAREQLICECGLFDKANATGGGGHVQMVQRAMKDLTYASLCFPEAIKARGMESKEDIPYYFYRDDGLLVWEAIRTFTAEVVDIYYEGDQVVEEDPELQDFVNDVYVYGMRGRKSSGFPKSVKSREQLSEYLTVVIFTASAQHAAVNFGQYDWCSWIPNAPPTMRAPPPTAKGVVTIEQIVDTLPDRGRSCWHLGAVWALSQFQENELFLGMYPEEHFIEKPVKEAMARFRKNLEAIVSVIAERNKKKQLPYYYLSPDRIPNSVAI
As to the kind of experiment: (§1) Inhibition of 5-lipoxygenase mediated LTB4 synthesis in A-23187 simulated human whole blood. The experiment is classed as functional, tissue-based.

Experiment [2] addresses T2, Polyunsaturated fatty acid 5-lipoxygenase (Mus musculus) (UniProt P48999).
T2 sequence (whole entry): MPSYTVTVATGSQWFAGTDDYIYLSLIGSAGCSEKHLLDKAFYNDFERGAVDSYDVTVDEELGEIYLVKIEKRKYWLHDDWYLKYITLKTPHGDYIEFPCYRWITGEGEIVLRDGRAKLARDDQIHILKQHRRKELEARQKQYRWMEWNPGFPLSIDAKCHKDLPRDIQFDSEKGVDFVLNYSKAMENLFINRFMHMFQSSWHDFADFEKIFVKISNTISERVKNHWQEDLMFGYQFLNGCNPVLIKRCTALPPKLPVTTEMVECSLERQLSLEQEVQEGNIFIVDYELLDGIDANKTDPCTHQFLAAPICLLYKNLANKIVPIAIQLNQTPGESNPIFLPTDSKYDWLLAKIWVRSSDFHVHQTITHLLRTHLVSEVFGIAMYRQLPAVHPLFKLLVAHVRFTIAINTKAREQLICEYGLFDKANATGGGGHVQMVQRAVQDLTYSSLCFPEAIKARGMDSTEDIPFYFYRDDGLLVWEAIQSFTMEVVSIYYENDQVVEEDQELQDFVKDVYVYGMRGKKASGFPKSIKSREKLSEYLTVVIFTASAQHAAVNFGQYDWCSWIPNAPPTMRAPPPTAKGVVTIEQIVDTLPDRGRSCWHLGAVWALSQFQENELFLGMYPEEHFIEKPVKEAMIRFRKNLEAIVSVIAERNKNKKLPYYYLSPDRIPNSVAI
As to the kind of experiment: Inhibition of 5-lipoxygenase-mediated platelet activating factor induced thrombosis in male mice. Type of experiment: functional.

The target of experiment [3] is T3, Polyunsaturated fatty acid 5-lipoxygenase (Homo sapiens) (UniProt P09917).
T3 sequence (whole entry): T1 sequence (P09917 whole entry)
As to the kind of experiment: Inhibition of 5-lipoxygenase mediated LTB4 synthesis in A-23187 simulated human whole blood at 1 uM concentration. The experiment is classed as functional, tissue-based.

Experiment [4] addresses T3, Polyunsaturated fatty acid 5-lipoxygenase (Homo sapiens). Described as §1. Type of experiment: functional, tissue-based. The settings on record: concentration not given here.
The target is the same in experiment [5]. The settings on record: Blood, 1 uM.

For the compound `Cc1nccn1-c1ccc(Sc2cccc(C3(C(N)=O)CCOCC3)c2)cc1`, the IC50 in experiment [1] was 230 nM. This compound also gave a 50% effective dose (ED50) in experiment [2] of 3.7 mg/kg.

In the case of `Cc1nccn1Cc1ccc(Sc2cccc(C3(C(N)=O)CCOCC3)c2)cc1`, in experiment [1], 140 nM corresponded to half-maximal inhibition (IC50). Further, the median effective dose (ED50) in experiment [2] is above 20 mg/kg.

`Cc1nccn1-c1ccc(Sc2cccc([C@]3(C(N)=O)CC4CC[C@H](C3)O4)c2)cc1` displayed an IC50 in experiment [1] of 830 nM. This compound also had an ED50 in experiment [2] of 7 mg/kg.

`NC(=O)C1(c2cccc(Sc3ccc(-n4cnnc4)cc3)c2)CCOCC1` yielded an IC50 in experiment [1] above 1000 nM. Moreover, the inhibition in experiment [3] is 1%.

In the case of `Cc1cc(C)n(-c2ccc(Sc3cccc(C4(C(N)=O)CCOCC4)c3)cc2)n1`, the IC50 in experiment [1] is above 1000 nM. Further, the inhibition in experiment [4] is -1%.

With `CO/N=C/C1(c2cccc(Sc3ccc(-n4ccnc4C)cc3)c2)CCOCC1`, in experiment [1], the concentration for half-maximal inhibition (IC50) was 150 nM. The 50% effective dose (ED50) in experiment [2] was found to be 2 mg/kg.

In turn, `NC(=O)C1(c2cccc(Sc3ccc(Cn4cccc4)cc3)c2)CCOCC1` displayed a half-inhibitory concentration (IC50) in experiment [1] of 270 nM. Also, it took a dose of 3 mg/kg to reach the 50% effect level in experiment [2] (ED50).

For `Cc1nccn1-c1ccc(Sc2cccc(C3(C(N)=O)CC4CCC(C3)O4)c2)cc1` (stereo unspecified), the IC50 in experiment [1] is above 1000 nM. Moreover, the inhibition in experiment [5] was -7%.

As usually defined, the IC50 is the concentration that inhibits the measured activity by half. In general, ED50 refers to the dose at which the effect has come halfway, by size or by number of responders. A word on the inhibition: it is the drop in the measured response relative to a control, in per cent.

These data come from ChEMBL document CHEMBL1145254, “5-Lipoxygenase inhibitors: convenient synthesis of 4-[3-(4-heterocyclylphenylthio)phenyl]-3,4,5,6-tetrahydro-2H-pyran-4-carboxamide analogues” (Bioorg Med Chem Lett, 2005).
